In ChEMBL document CHEMBL1201862, “PubChem BioAssay data set” (2004):
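How tested: cells in 96-well plates exposed to compound for 48 hours at five concentrations. At the GI50, growth is halved.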 Activity calls are given as the source filed them. No stated cut-off is given here; in the data, active = GI50 up to about 1.1 µM and inactive = higher.

How the values were obtained:
Experiment in all cases: growth of human tumour cells (NCI), 48 h
[1] = system: 786-0
[2] = system: U-251
[3] = system: SR
[4] = system: NCI-H226
[5] = system: HOP-92
[6] = system: SF-268
[7] = system: UACC-62
[8] = system: NCI-H23
[9] = system: OVCAR-8
[10] = system: HCT-116
[11] = system: SW-620
[12] = system: Malme-3M
[13] = system: M14
[14] = system: EKVX
[15] = system: MDA-N
[16] = system: PC-3
[17] = system: MDA-MB-231
[18] = system: MCF7
[19] = system: BT-549

Measured: GI50

NC(=S)N/N=C/C(O[C@@H](/C=N/NC(N)=S)CO)n1cnc2c(N)ncnc21 (stereo partly drawn)
inactive: [1] > 58.2 µM | [2] > 51.2 µM | [3] > 100 µM | [4] > 100 µM | [5] 97.5 µM | [6] > 85.5 µM | [7] > 81.7 µM | [8] > 100 µM | [9] > 91.2 µM | [10] 24.4 µM | [11] > 38 µM | [12] > 100 µM | [13] > 100 µM | [14] > 100 µM

CCC(=O)C1(N2CCOCC2)CCN(CCCC(=O)c2ccc(F)cc2)CC1
inactive: [1] > 100 µM | [2] > 100 µM | [4] > 100 µM | [15] > 100 µM | [6] > 100 µM | [7] > 100 µM | [8] > 100 µM | [16] > 100 µM | [9] > 100 µM | [10] > 100 µM | [17] > 100 µM | [11] > 100 µM | [12] > 100 µM | [18] > 100 µM | [13] > 100 µM | [14] > 100 µM

O=C(CSCC(=O)N/N=C/c1ccccc1)N/N=C\c1ccccc1
inactive: [1] > 100 µM | [2] > 100 µM | [4] > 100 µM | [5] > 100 µM | [6] > 100 µM | [7] > 100 µM | [8] > 100 µM | [16] > 100 µM | [19] 2.2 µM | [9] > 100 µM | [10] > 100 µM | [17] > 100 µM | [11] > 100 µM | [12] > 100 µM | [18] > 100 µM | [13] > 100 µM | [14] > 100 µM

CCCCCCCCCCCCCCCCCc1nc(C#N)c(N)o1
inactive: [1] 23.3 µM | [2] 44.2 µM | [3] 7.89 µM | [5] 74.5 µM | [15] > 100 µM | [6] 33.2 µM | [7] > 100 µM | [16] 24.4 µM | [9] 13.8 µM | [10] > 100 µM | [17] 21 µM | [11] > 100 µM | [18] > 100 µM | [13] 98.6 µM | [14] > 100 µM

O=C(O)C1CC2C3CCC2C1C3=O (stereo not drawn)
inactive: [1] > 100 µM | [2] > 100 µM | [3] > 100 µM | [4] > 100 µM | [5] > 100 µM | [15] > 100 µM | [6] > 100 µM | [7] > 100 µM | [8] > 100 µM | [16] > 100 µM | [9] > 100 µM | [10] > 100 µM | [17] > 100 µM | [11] > 100 µM | [12] > 100 µM | [18] > 100 µM | [13] > 100 µM | [14] > 100 µM

FC(F)(F)C1(C(F)(F)F)C2CCC3(CC(F)(F)C(F)(F)S3)C1C2 (stereo not drawn)
inactive: [1] > 100 µM | [2] > 100 µM | [3] 21.3 µM | [4] 64.7 µM | [15] > 100 µM | [6] 44.6 µM | [7] > 100 µM | [8] 35.7 µM | [16] 37.2 µM | [9] > 100 µM | [10] 20.2 µM | [17] > 100 µM | [11] > 100 µM | [12] 34 µM | [18] 36.1 µM | [13] > 100 µM | [14] 32.4 µM

C/N=C(\Nc1cccc(C(F)(F)F)c1)SCc1ccc(N=C=S)cc1
inactive: [1] 16.4 µM | [2] 15.8 µM | [3] 4.34 µM | [4] 19.8 µM | [5] 14.7 µM | [15] 14.8 µM | [6] 31.2 µM | [7] 11.8 µM | [8] 16.3 µM | [16] 15.9 µM | [9] 19.6 µM | [10] 15.5 µM | [17] 11.2 µM | [11] 20.2 µM | [12] 14.7 µM | [14] 20.2 µM

CN(NC(=O)/C(=C\c1ccco1)NC(=O)c1ccccc1)c1cn[nH]c(=O)c1Cl
inactive: [1] 41.3 µM | [2] 79.4 µM | [3] 29.9 µM | [4] 45.6 µM | [5] > 100 µM | [6] > 100 µM | [7] > 100 µM | [8] > 100 µM | [16] > 100 µM | [9] 42.7 µM | [10] 51.5 µM | [17] > 100 µM | [11] 45.9 µM | [12] 39.3 µM | [18] > 100 µM | [13] 66.2 µM | [14] > 100 µM

COC(=O)[C@]12CC[C@H]3CN(C(=O)OCc4ccccc4)[C@H]([C@H]31)[C@H](c1ccco1)N2
inactive: [1] 77.8 µM | [2] 84.7 µM | [3] 44.9 µM | [4] 69.7 µM | [5] 29.4 µM | [15] 30.8 µM | [6] 57 µM | [7] 23.7 µM | [8] 17.3 µM | [16] 33.2 µM | [9] 33 µM | [10] 40.8 µM | [17] 82 µM | [11] > 100 µM | [12] 23.3 µM | [18] 42.3 µM | [13] 38 µM | [14] 39.9 µM
